Where “and” joins values, the source holds several entries; their conditions need not be identical. Equal values may be shown once.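 Briefly, cells in 96-well plates were exposed to five compound concentrations for 48 h, and endpoints were estimated by linear interpolation. GI50: concentration for 50% inhibition of growth. The concentration for full growth arrest is given as TGI.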
Legend:
Assay in all cases: NCI-60 cell line screen, 48 h
SW-620 colon = test system: SW-620 colon
IGROV1 ovarian = test system: IGROV1 ovarian
HCC-2998 colon = test system: HCC-2998 colon
LOX IMVI melanoma = test system: LOX IMVI melanoma
HL-60(TB) leukemia = test system: HL-60(TB) leukemia
COLO 205 colon = test system: COLO 205 colon
PC-3 prostate = test system: PC-3 prostate
HS 578T breast = test system: HS 578T breast
BT-549 breast = test system: BT-549 breast
NCI-H522 lung = test system: NCI-H522 lung

SMILES	TGI (SW-620 colon)	TGI (IGROV1 ovarian)	TGI (HCC-2998 colon)	TGI (LOX IMVI melanoma)	TGI (HL-60(TB) leukemia)	GI50 (SW-620 colon)	GI50 (IGROV1 ovarian) [µM]	GI50 (COLO 205 colon)	TGI (COLO 205 colon)	GI50 (HCC-2998 colon) [µM]	GI50 (LOX IMVI melanoma) [µM]	GI50 (PC-3 prostate) [µM]	TGI (PC-3 prostate) [µM]	GI50 (HS 578T breast) [µM]	TGI (HS 578T breast) [µM]	GI50 (BT-549 breast) [µM]	TGI (BT-549 breast) [µM]	GI50 (NCI-H522 lung) [µM]	TGI (NCI-H522 lung)	GI50 (HL-60(TB) leukemia) [µM]
O=C1NC2(CCCCC2)C2CCCCCC12 (stereo unspecified)	> 100 µM	> 100 µM	> 100 µM	> 100 µM	> 100 µM															
N#C[S-].[Nd+3].c1ccc(-c2ccccn2)nc1.c1ccc(-c2ccccn2)nc1.c1ccc(-c2ccccn2)nc1	> 100 µM	42.6 µM	> 100 µM	> 100 µM		5.93 µM	11.6	18.6 µM	> 100 µM	7.87	4.23									
C#CC(F)(F)[C@]1(O)CC[C@H]2[C@@H]3CCC4=CC(=O)CCC4=C3[C@@H](c3ccc(C(C)=O)cc3)C[C@@]21C	> 100 µM		> 100 µM			24.2 µM		13.1 µM	38.6 µM	31.2		10	97.9	17	> 95.2	15.5	55.2	0.0167	0.0331 µM	
Fc1ccc(N=NN2CCCC2)cc1	> 100 µM	> 100 µM	> 100 µM	> 100 µM	> 100 µM				> 100 µM						> 100		> 100		> 100 µM	
c1ccc2c(c1)CCc1cc3cc4c(nc3nc1-2)-c1ccccc1CC4	> 100 µM	> 100 µM	> 100 µM	> 100 µM	> 100 µM				> 100 µM										> 100 µM	
O=C(NC1CCN(Cc2ccccc2)CC1)c1cc2nc(-c3ccc(Cl)s3)cc(C(F)(F)F)n2n1		> 100 µM					> 100							10.9	> 100	> 100	> 100	8.45	> 100 µM	
CC(C)c1ccc(/C=C2\CSCC3=C2NC(=S)NC3c2ccc(C(C)C)cc2)cc1 (stereo unspecified)	> 100 µM	> 100 µM	> 100 µM	> 100 µM	> 100 µM				> 100 µM				> 100				> 100		> 100 µM	
O=c1[nH]c(=O)n(Cc2ccccc2CO)cc1Sc1ccccc1	> 100 µM	29 µM	30.8 µM		> 100 µM				> 100 µM				> 100		60.6				3.81 µM	
CCCCOP1(=O)C=C(C)C(=C(Cl)Cl)C(C)=C1 (stereo unspecified)	> 40 µM	49 µM	52.3 µM	33.1 µM	8.26 µM				8.97 µM										11 µM	
Oc1ccc(SCc2cc(O)c(O)c(O)c2)cc1	> 100 µM	57.8 µM		> 100 µM	> 100 µM				36.9 µM				> 100		> 100		85.9		61.4 µM	
CC(=O)OC(OC(C)=O)n1cc(C=O)c2ccccc21	> 100 µM		> 100 µM	> 100 µM	> 100 µM				> 100 µM				> 100		> 100				> 100 µM	
COc1cccc(N(CN2CC=CC2=O)C(C)=O)c1	> 100 µM	> 100 µM	> 100 µM	> 100 µM	> 100 µM				> 100 µM				> 100		> 100				> 100 µM	
CNC(=O)c1cc(NC(=O)N(CCC#N)CCN(C(=O)N[C@@H](Cc2ccccc2)C(=O)N[C@@H](CC(C)C)C(=O)NC)c2ccccc2)ccc1OC	> 100 µM	> 73.2 µM		> 100 µM	> 100 µM				> 100 µM				> 100		> 100		> 100			
NCCNc1cccc2ccccc12	> 100 µM	> 100 µM	> 100 µM	> 100 µM	> 100 µM				> 100 µM										> 100 µM	
CSc1c(C#N)c(=O)[nH]c2n[nH]c(C)c12	> 100 µM		> 100 µM	> 100 µM	> 100 µM				> 100 µM				> 100		> 100		> 100			
c1ccc2c(c1)nc(NC1CCCC1)c1[nH]c(C3CCCC3)nc12	21.2 µM	46 µM	17.6 µM	30.6 µM	6.82 µM				36.5 µM										36.9 µM	
O=C1C(Br)=CC2(C=C1Br)CCNC1=C2C(=O)c2cccnc2C1=O	27.3 µM	21.8 µM	31.9 µM	18.9 µM	15.8 µM				30.1 µM				39.7		45.3				13.9 µM	
OC1(c2cc3ccccc3s2)CCCCC1	> 100 µM	> 100 µM	> 100 µM	> 100 µM	> 100 µM				41.8 µM						87.5		> 100		65.6 µM	
O=C(CCCCCCCCC(=O)N1C(=O)CC(=O)N(c2cccc(Cl)c2)C1=S)N1C(=O)CC(=O)N(c2cccc(Cl)c2)C1=S			> 100 µM	> 100 µM					> 100 µM				91.2		> 100		> 100		71.1 µM	
NC(=O)C#CC(N)=O	18.2 µM and 12.1 µM and 31.1 µM	213 µM and 189 µM and > 100 µM	179 µM and > 100 µM	80.5 µM and 30.4 µM	4.29 µM and 4.03 µM and 6.3 µM	5.74 µM and 3.1 µM and 15.2 µM		15.4 µM and 15 µM and 73.6 µM	30.8 µM and 29.8 µM and > 100 µM										46.5 µM and 27.7 µM and 55.2 µM	1.95
CC(CO)C1C[C@H](O)[C@@]2(C)CC(=O)C=C(CO)[C@@H]2C1 (stereo partly specified)	> 100 µM	> 100 µM	> 100 µM	> 100 µM	> 100 µM				> 100 µM								> 100			
Cc1cccc(NC(=O)C(=O)C(C(=O)c2ccccc2F)C2OC(=O)c3ccccc32)c1Cl (stereo unspecified)	> 100 µM	> 100 µM	43.7 µM	43.3 µM	56.2 µM				38.1 µM										79.9 µM	
COC(OC)C1OC(CO)C(n2ccc(N)nc2=O)C1O (stereo unspecified)	> 100 µM	> 100 µM	> 100 µM	> 100 µM					> 100 µM				> 100		> 100		> 100		> 100 µM	
